From patent publication US5457030A, “Method and composition for determining antimicrobial susceptibility of the majority clinically significant Gram postitive organism” (MicroScan, Inc., priority 1993, dated 1995)
Converted amounts (≈) assume the structure as drawn. Where two headings read alike, the source gives them in different places.

Columns and labels:
Enterococcus faecalis [1] = test: Percent fluorescence (growth) in wells containing antimicrobial agents, Example 1 (Table 6); type: cell-based
Method: (§1) A primary inoculum suspension of a bacterial isolate in saline-pluronic, equivalent to a 0.5 McFarland turbidity standard is prepared. The final inoculum suspension is prepared by diluting a 0.3 ml aliquot of the primary suspension in 25 ml of Rapid Pos Inoculum Broth (B1015-14, Baxter Diagnostics Inc., MicroScan Division, West Sacramento, Calif.). A 115 μl of the final inoculum is added to the growth compartment which contains dried material of fluorogenic enzyme substrates equivalent to 0.023 mM leucine-7-amido-4-methylcoumarin, 0.012 mM phenylalanine-7-amido-4-methylcoumarin and 0.058 mM methylumbelliferyl phosphate and 1.15 mM HEPES buffer at pH 7.0. The final inoculum is also added to a number of compartments containing dried material identical to that in the growth well and different concentrations of an antimicrobial agent. An aliquot of the final inoculum is also added to a compartment, containing only dried HEPES buffer, acting as a control. The inoculated multicompartment device (panel) is inserted in the autoSCAN®-W/A. The fluorescence of each compartment is measured at predetermined times and a Growth Index is calculated by dividing the fluorescence of the growth compartment by that of the negative control compartment.
^FL growth - ^FL control
(§2) If the value of the Growth Index is equal to or exceeds a specified value, the Minimum Inhibitory Concentration for every antimicrobial agent present in the multicompartment device is calculated. Otherwise the device is returned to its position and measured again at the next read time. The read times in this example are 3.5, 4.5, 5.5, 7.0, 8.0, 11.0, and 15.0 hours. For calculation of minimum inhibitory concentration, the percent fluorescence of compartments containing the different concentrations of the antimicrobial agent is calculated by subtracting from each compartment the fluorescence of the control well and dividing it by the delta fluorescence of the growth compartment, obtained by subtracting the fluorescence of the negative control compartment from the fluorescence of the growth compartment. The minimum inhibitory concentration is calculated using a mathematical model specific for each concentration range of the antimicrobial agent. Using a mathematical model based on discriminate functional analysis, the minimum inhibitory concentration of each antimicrobial agent, for the organism tested, can be determined. Utilization of a discriminate function analysis model in microbiological pattern recognition is described in S. Bascomb, Computers in Taxonomy and Systematics, p. 65-102 In T. N. Bryant and J. W. T. Wimpenny (Ed.), Computers in Microbiology, a Practical Approach (IRL Press, Oxford). In an alternative embodiment the minimum inhibitory concentration for each antimicrobial agent for the organism tested can be determined by a breakpoint or threshold method or linear regression analysis. J. McKie, et al., Antimicrobial Agents and Chemotherapy (1980) v. 17, 813-823.
(§3) In Example 1, the growth of Enterococcus faecalis in wells containing specified amounts of antimicrobial agents is estimated by measurement of fluorescence. In Table 6, the percent fluorescence at different concentrations of antimicrobial agents is reported. For example, 0.12, 0.25, 0.5, 1, 2, 4 and 8 μg/mL of ampicillin (Am) were present in the microdilution wells.
The numbers 105, 105, 67, 7, 6, 5, 6 are percent fluorescence values as calculated in […]. These figures are used to determine susceptibility according to the methods discussed on pages 12 and 13.

Enterococcus faecalis [2] = test: Minimum inhibitory concentration determination, Example 1 (Table 7); type: cell-based
Method: as §1, §2, §3
In Table 7, the minimum inhibitory concentration for Example 1 are reported.

[3] = Enterococcus faecalis, read-out: percent fluorescence
[4] = Enterococcus faecalis, read-out: concentration at which organism was found to be susceptible
[5] = Enterococcus faecalis, read-out: minimum inhibitory concentration
[6] = Enterococcus faecalis, 4 μg/mL, read-out: percent fluorescence
[7] = Enterococcus faecalis, 8 μg/mL, read-out: percent fluorescence
[8] = Enterococcus faecalis, Table 7, Example 1, read-out: concentration at which organism was found to be susceptible
[9] = Table 7, Enterococcus faecalis, Example 1, read-out: minimum inhibitory concentration

Row | Compound | activity at 0.5 µg/mL (Enterococcus faecalis [1]; [3]) [%] | activity at 1 µg/mL (Enterococcus faecalis [1]; [3]) [%] | activity at 2 µg/mL (Enterococcus faecalis [1]; [3]) [%] | activity at 4 µg/mL (Enterococcus faecalis [1]; [3]) [%] | MIC (Enterococcus faecalis [2]; [4]) [µg/mL] | MIC (Enterococcus faecalis [2]; [5]) [µg/mL] | activity at 8 µg/mL (Enterococcus faecalis [1]; [3]) [%] | also measured
1 | CC[C@H]1OC(=O)[C@H](C)[C@@H](O[C@H]2C[C@@](C)(OC)[C@@H](O)[C@H](C)O2)[C@H](C)[C@@H](O[C@@H]2O[C@H](C)C[C@H](N(C)C)[C@H]2O)[C@](C)(O)C[C@@H](C)C(=O)[C@H](C)[C@@H](O)[C@]1(C)O [Erythromycin] | 9 | 5 | 5 | 4 | 4 (≈ 5.45 µM) | 4 (≈ 5.45 µM) |  | activity at 0.25 µg/mL (Enterococcus faecalis [1]; [3]): 59%
2 | C[C@@H](O)[C@H]1C(=O)N2C(C(=O)O)=C(SCCN=CN)C[C@H]12 [Imipenem] |  |  |  |  |  |  |  | activity at 1 µg/mL (Enterococcus faecalis [1]; Enterococcus faecalis, 1 μg/mL, read-out: percent fluorescence): 65%; activity at 2 µg/mL (Enterococcus faecalis [1]; Enterococcus faecalis, 2 μg/mL, read-out: percent fluorescence): 5%; activity at 4 µg/mL (Enterococcus faecalis [1]; [6]): 5%; activity at 8 µg/mL (Enterococcus faecalis [1]; [7]): 5%; MIC (Enterococcus faecalis [2]; [8]): 4 µg/mL (≈ 13.4 µM); MIC (Enterococcus faecalis [2]; [9]): 4 µg/mL (≈ 13.4 µM)
3 | O=C1CN(/N=C/c2ccc([N+](=O)[O-])o2)C(=O)N1 [Nitrofurantoin] |  |  |  |  |  |  |  | activity at 32 µg/mL (Enterococcus faecalis [1]; Enterococcus faecalis, 32 μg/mL): 86%; activity at 46 µg/mL (Enterococcus faecalis [1]; Enterococcus faecalis, 46 μg/mL (printed 46Fd)): 21%; MIC (Enterococcus faecalis [2]; [8]): < 32 µg/mL; MIC (Enterococcus faecalis [2]; [9]): < 32 µg/mL
4 | CCn1cc(C(=O)O)c(=O)c2cc(F)c(N3CCNCC3)cc21 [Norfloxacin] |  |  |  |  |  |  |  | activity at 4 µg/mL (Enterococcus faecalis [1]; [6]): 6%; activity at 8 µg/mL (Enterococcus faecalis [1]; [7]): 6%; MIC (Enterococcus faecalis [2]; [8]): < 4 µg/mL; MIC (Enterococcus faecalis [2]; [9]): < 4 µg/mL
5 | Cc1onc(-c2ccccc2)c1C(=O)N[C@@H]1C(=O)N2[C@@H]1SC(C)(C)[C@@H]2C(=O)O [Oxacillin] | 98 | 100 | 99 | 95 |  |  | 90 | activity at 0.25 µg/mL (Enterococcus faecalis [1]; [3]): 103%
6 | CC1(C)S[C@@H]2[C@H](NC(=O)Cc3ccccc3)C(=O)N2[C@H]1C(=O)O [Penicillin] | 105 | 93 | 12 | 7 |  |  | 7 | activity at 0.03 µg/mL (Enterococcus faecalis [1]; [3]): 99%; activity at 0.06 µg/mL (Enterococcus faecalis [1]; [3]): 104%; activity at 0.12 µg/mL (Enterococcus faecalis [1]; [3]): 105%; activity at 25 µg/mL (Enterococcus faecalis [1]; [3]): 105%
7 | CO[C@H]1/C=C/O[C@@]2(C)Oc3c(C)c(O)c4c(O)c(c(/C=N/N5CCN(C)CC5)c(O)c4c3C2=O)NC(=O)/C(C)=C\C=C\[C@H](C)[C@H](O)[C@@H](C)[C@@H](O)[C@@H](C)[C@H](OC(C)=O)[C@@H]1C [Rifampin] |  | 58 | 21 |  | 2 (≈ 2.43 µM) | 2 (≈ 2.43 µM) |  | 
8 | CN[C@@H]1[C@H](O[C@H]2[C@H](O[C@H]3[C@H](O)[C@@H](O)[C@H](N=C(N)N)[C@@H](O)[C@@H]3N=C(N)N)O[C@@H](C)[C@]2(O)C=O)O[C@@H](CO)[C@H](O)[C@H]1O [Streptomycin Synergy Screen] |  |  |  |  |  |  |  | percent fluorescence (Enterococcus faecalis [1]; synergy screen well): 5%; Streptomycin Synergy Screen result in Table 7 (Enterococcus faecalis [2]; Table 7, Enterococcus faecalis, Example 1): 5; susceptibility to synergy screen (Enterococcus faecalis [2]; Table 7, Example 1): susceptible
9 | CN(C)C1C(=O)C(C(N)=O)=C(O)C2(O)C(=O)C3=C(O)c4c(O)cccc4C(C)(O)C3CC12 (centres unmarked) [Tetracycline] | 91 | 85 | 79 | 71 | 128 (≈ 288 µM) | 128 (≈ 288 µM) | 62 | activity at 128 µg/mL (Enterococcus faecalis [1]; [3]): 37%
10 | CN[C@H](CC(C)C)C(=O)N[C@H]1C(=O)N[C@@H](CC(N)=O)C(=O)N[C@H]2C(=O)N[C@H]3C(=O)N[C@H](C(=O)N[C@H](C(=O)O)c4cc(O)cc(O)c4-c4cc3ccc4O)[C@H](O)c3ccc(c(Cl)c3)Oc3cc2cc(c3O[C@@H]2O[C@H](CO)[C@@H](O)[C@H](O)[C@H]2O[C@H]2C[C@](C)(N)[C@H](O)[C@H](C)O2)Oc2ccc(cc2Cl)[C@H]1O [Vancomycin] |  |  | 5 | 5 | < 2 | < 2 | 5 | activity at 16 µg/mL (Enterococcus faecalis [1]; [3]): 2%
11 | Gentamicin |  |  |  |  |  |  |  | percent fluorescence (Enterococcus faecalis [1]; 1 μg/mL): 105%; percent fluorescence (Enterococcus faecalis [1]; 2 μg/mL): 99%; percent fluorescence (Enterococcus faecalis [1]; 4 μg/mL): 95%; percent fluorescence (Enterococcus faecalis [1]; 6 μg/mL): 93%; percent fluorescence (Enterococcus faecalis [1]; 8 μg/mL): 93%
